This is an account of results in ChEMBL document CHEMBL5260848, “Recent advancements in the development of bioactive pyrazoline derivatives” (Eur J Med Chem, 2020).

For one series, the system named is Escherichia coli. As to the kind of experiment: Antibacterial activity against Escherichia coli incubated for 24 hrs by disc diffusion method. Type of series: functional. (A growth-free zone around the sample is the usual read-out of agar diffusion tests.)
Another series relates to Aspergillus fumigatus. As to the kind of experiment: Antifungal activity against Aspergillus fumigatus incubated for 24 hrs by disc diffusion method. The class given is functional.
The next series deals with Aspergillus niger. As to the kind of experiment: Antifungal activity against Aspergillus niger incubated for 24 hrs by disc diffusion method. The class given is functional.
The next series deals with Aspergillus flavus. The series is described as follows: Antifungal activity against Aspergillus flavus incubated for 24 hrs by disc diffusion method. The class given is functional.
For series [1], the system named is Mycobacterium tuberculosis. The series is described as follows: microbe, parasite or virus in culture. The following applies: 120 h.
Another series deals with Staphylococcus aureus. The series is described as follows: microbe, parasite or virus in culture. Particulars: 24 h.
Another series has as its system Bacillus subtilis. As to the kind of experiment: microbe, parasite or virus in culture. The following applies: 24 h.
For another series, the system named is Pseudomonas aeruginosa. As to the kind of experiment: microbe, parasite or virus in culture. The following applies: 24 h.
The subject of series [2] is Candida albicans. As to the kind of experiment: microbe, parasite or virus in culture. Particulars: 24 h.
The nature of series [3]: Cytotoxicity against rat PC-12 cells assessed as reduction in cell viability. Type of series: toxicity, cell-based.
The next series concerns PC-12. The series is described as follows: Cytotoxicity against rat PC-12 cells assessed as reduction in cell viability relative to control. Type of series: toxicity, cell-based.
In series [4] the test system is Candida albicans. The series is described as follows: Antifungal activity against Candida albicans assessed as reduction in microbial growth. The class given is functional.
A further series relates to Cryptococcus neoformans. The series is described as follows: Antifungal activity against Cryptococcus neoformans assessed as reduction in microbial growth. Type of series: functional.
Series [5] deals with T1, Amine oxidase [flavin-containing] A (Homo sapiens, UniProt P21397).
T1 sequence (P21397 whole entry): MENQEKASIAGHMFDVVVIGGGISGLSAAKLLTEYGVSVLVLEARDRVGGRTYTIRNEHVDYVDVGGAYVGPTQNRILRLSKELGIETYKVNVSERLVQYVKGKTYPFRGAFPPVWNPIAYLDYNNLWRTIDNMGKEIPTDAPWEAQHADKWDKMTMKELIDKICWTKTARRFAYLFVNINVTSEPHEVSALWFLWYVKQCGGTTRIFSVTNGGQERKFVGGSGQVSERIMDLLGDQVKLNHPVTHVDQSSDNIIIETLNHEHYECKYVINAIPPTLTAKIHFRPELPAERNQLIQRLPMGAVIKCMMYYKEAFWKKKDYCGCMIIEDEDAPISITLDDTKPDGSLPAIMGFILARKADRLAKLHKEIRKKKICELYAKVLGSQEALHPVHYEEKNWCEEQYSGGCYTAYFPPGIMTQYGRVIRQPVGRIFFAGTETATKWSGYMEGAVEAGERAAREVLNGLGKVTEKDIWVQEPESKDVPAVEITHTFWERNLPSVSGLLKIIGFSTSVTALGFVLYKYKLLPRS

Molecules are shown by their SMILES. Values after ≈ are worked out from the molar mass of the structure shown.

Regarding `O=C(NNS(=O)(=O)c1ccc(F)cc1)N1N=C(c2ccccc2)CC1c1ccccc1` (stereo not drawn), the MIC was found to be 25 µg/mL (≈ 57 µM) against Escherichia coli; 25 µg/mL (≈ 57 µM) with Aspergillus fumigatus; 25 µg/mL (≈ 57 µM) against Aspergillus niger; 25 µg/mL (≈ 57 µM) against Aspergillus flavus; 0.8 µg/mL (≈ 1.82 µM) in series [1]; 25 µg/mL (≈ 57 µM) in the series on Staphylococcus aureus. The MIC in the series with Bacillus subtilis, with Pseudomonas aeruginosa and with Candida albicans [2] was 25 µg/mL (≈ 57 µM) throughout.

For the compound `O=C(NNS(=O)(=O)c1ccccc1)N1N=C(c2ccccc2)CC1c1ccc(Br)cc1` (stereo not drawn), the MIC with Escherichia coli was 25 µg/mL (≈ 50.1 µM); in the series on Aspergillus fumigatus, 25 µg/mL (≈ 50.1 µM); with Aspergillus niger, 25 µg/mL (≈ 50.1 µM); against Aspergillus flavus, 25 µg/mL (≈ 50.1 µM); in series [1], 0.8 µg/mL (≈ 1.6 µM); against Staphylococcus aureus it was 25 µg/mL (≈ 50.1 µM). Moreover, the MIC in the series on Bacillus subtilis, against Pseudomonas aeruginosa and against Candida albicans [2] was 25 µg/mL (≈ 50.1 µM) in each case.

Regarding `Cc1ccc(C2CC(c3ccco3)=NN2c2ccc(F)cc2)cc1` (stereo not drawn), in [3], the IC50 stood at 12 µg/mL (≈ 37.5 µM). The Activity in the series on PC-12 stood at 3%.

On to `O=C(NNS(=O)(=O)c1ccccc1)N1N=C(c2ccccc2)CC1c1ccc(Cl)cc1` (stereo not drawn), for which the MIC in the series on Escherichia coli is 25 µg/mL (≈ 55 µM); in the series with Aspergillus fumigatus it was 25 µg/mL (≈ 55 µM); against Aspergillus niger it was 25 µg/mL (≈ 55 µM); in the series with Aspergillus flavus, 25 µg/mL (≈ 55 µM); in series [1], 1.6 µg/mL (≈ 3.52 µM); in the series on Staphylococcus aureus, 25 µg/mL (≈ 55 µM). Besides, the MIC against Bacillus subtilis, against Pseudomonas aeruginosa and with Candida albicans [2] was 25 µg/mL (≈ 55 µM) each time.

Regarding `O=C(NNS(=O)(=O)c1ccc(F)cc1)N1N=C(c2ccccc2)CC1c1ccc(F)cc1` (stereo not drawn), the MIC came to 25 µg/mL (≈ 54.8 µM) with Escherichia coli; 25 µg/mL (≈ 54.8 µM) in the series on Aspergillus fumigatus; 25 µg/mL (≈ 54.8 µM) with Aspergillus niger; 25 µg/mL (≈ 54.8 µM) with Aspergillus flavus; 0.8 µg/mL (≈ 1.75 µM) in series [1]; 25 µg/mL (≈ 54.8 µM) with Staphylococcus aureus. The MIC against Bacillus subtilis, in the series with Pseudomonas aeruginosa and against Candida albicans [2] was 25 µg/mL (≈ 54.8 µM) in each case.

For `Fc1ccc(N2N=C(c3cccs3)CC2c2ccc3c(c2)OCO3)cc1` (stereo not drawn), the IC50 in series [3] was determined as 12 µg/mL (≈ 32.7 µM). Further, the Activity in the series on PC-12 worked out at 3%.

Turning to `Clc1ccc2c(Nc3ccc(C4=NN(c5ccccc5)C(c5ccc(Br)cc5)C4)cc3)ccnc2c1` (stereo not drawn), the MIC50 in the series with Candida albicans [4] and with Cryptococcus neoformans was 3.9 µg/mL in each case.

For `Cc1ccc(C2CC(c3ccco3)=NN2c2ccccc2)cc1` (stereo not drawn), the IC50 in series [3] stood at 12 µg/mL (≈ 39.7 µM). Moreover, the Activity in the series on PC-12 is recorded as 3%.

As to `Clc1ccc(C2CC(c3ccc(Nc4ccnc5cc(Cl)ccc45)cc3)=NN2c2ccccc2)cc1` (stereo not drawn), the MIC50 with Candida albicans [4] and with Cryptococcus neoformans was 3.9 µg/mL in each case.

As to `Cc1ccc(C2=NN(C(=S)Nc3ccccc3)C(c3ccc(F)cc3)C2)cc1` (stereo not drawn), the Ki in series [5] was determined as 0.1 nM.

With `Cc1ccc(C2CC(c3ccco3)=NN2c2ccc(S(N)(=O)=O)cc2)cc1` (stereo not drawn), in series [3], the IC50 came to 12 µg/mL (≈ 31.5 µM). In addition, the Activity in the series on PC-12 was 3%.

In the case of `Clc1ccc2c(Nc3ccc(C4=NN(c5ccccc5)C(c5ccccc5)C4)cc3)ccnc2c1` (stereo not drawn), the MIC50 with Candida albicans [4] and in the series on Cryptococcus neoformans was 3.9 µg/mL in each case.

In the case of `CS(=O)(=O)c1ccc(N2N=C(c3cccs3)CC2c2ccc3c(c2)OCO3)cc1` (stereo not drawn), in series [3], the IC50 was more than 400 µg/mL. In addition, the Activity with PC-12 was determined as 77%.

As for `Cc1ccc(C2CC(c3cccc(Nc4ccnc5cc(Cl)ccc45)c3)=NN2c2ccccc2)cc1` (stereo not drawn), the MIC50 in the series with Candida albicans [4] and with Cryptococcus neoformans was 3.9 µg/mL in each case.

Consider `COc1ccc(N2N=C(c3cccs3)CC2c2ccc3c(c2)OCO3)cc1` (stereo not drawn), for which, in series [3], the IC50 worked out at 12 µg/mL (≈ 31.7 µM). Also, the Activity in the series on PC-12 came to 3%.

Turning to `C[C@@H]1[C@H](O)[C@@H](C)/C=C/C=C/C=C/C=C/C=C/C=C/C=C/[C@H](O[C@@H]2O[C@H](C)[C@@H](O)[C@H](N)[C@@H]2O)C[C@@H]2O[C@](O)(C[C@@H](O)C[C@@H](O)[C@H](O)CC[C@@H](O)C[C@@H](O)CC(=O)O[C@H]1C)C[C@H](O)[C@H]2C(=O)O` [AMPHOTERICIN B], the MIC50 in the series with Candida albicans [4] and in the series with Cryptococcus neoformans was 0.5 µg/mL throughout.

Take `COc1cc(C2CC(c3cccc(Nc4ccnc5cc(Cl)ccc45)c3)=NN2c2ccccc2)cc(OC)c1OC` (stereo not drawn): the MIC50 with Candida albicans [4] and with Cryptococcus neoformans was 3.9 µg/mL in each case.

`Cc1ccc(C2CC(c3ccco3)=NN2c2ccc(Cl)cc2)cc1` (stereo not drawn): in series [3], the IC50 turned out to be 12 µg/mL (≈ 35.6 µM). In addition, the Activity with PC-12 worked out at 3%.

Broadly, the IC50 is the concentration that gives 50% inhibition. Usually MIC50 stands for an inhibitory concentration at the 50% level, which refers to growth in some studies and to a panel of isolates in others. One may read the Ki as a dissociation constant, usually derived from enzyme kinetics or from competition with a known ligand. A high value points to weaker binding.
